Reference: ChEMBL document CHEMBL5104111, “Boron-Containing heterocycles as promising pharmacological agents” (Bioorg Med Chem, 2022)
In brackets after ≈: the same amount, converted by molar mass.

Tests used:
LN-229 = experiment: Anticancer activity against human LN-229 cells assessed as cell growth inhibition by trypan blue exclusion assay; format: functional, cell-based
A549 = experiment: Cytotoxicity against human A549 cells assessed as cell growth inhibition; format: functional
[1] = test system: Mycolicibacterium smegmatis; experiment: Antibacterial activity against Mycobacterium smegmatis assessed as bacterial growth inhibition; format: functional
Escherichia coli [2] = experiment: Antibacterial activity against Escherichia coli ATCC 25922 assessed as bacterial growth inhibition incubated for 72 hrs by broth microdilution method; format: functional
[3] = test system: Mycolicibacterium smegmatis; experiment: Antibacterial activity against Mycobacterium smegmatis ATCC 700084 assessed as bacterial growth inhibition incubated for 72 hrs by broth microdilution method; format: functional
[4] = test system: Mycobacterium tuberculosis; experiment: Antibacterial activity against Mycobacterium tuberculosis H37Rv ATCC 27294 assessed as bacterial growth inhibition by radiometry method; format: functional
[5] = test system: Mycobacterium tuberculosis; experiment: Antibacterial activity against Mycobacterium tuberculosis H37Rv ATCC 25618 assessed as bacterial growth inhibition incubated for 5 days by fluorescence based assay; format: functional, organism-based; settings: H37Rv ATCC 25618, 120 h
[6] = Protein binding in human serum; format: ADME, cell-free; settings: read-out: PB (converted)
HepG2 = experiment: Cytotoxicity against human HepG2 cells assessed as cell growth inhibition incubated for 72 hrs by Cell Titer Glo assay; format: functional, cell-based; settings: HepG2, 72 h
[7] = Protein binding in mouse plasma; format: ADME, cell-free; settings: read-out: PB (converted)
Bacillus cereus = experiment: Antibacterial activity against Bacillus cereus assessed as bacterial growth inhibition at 100 ug incubated for 48 hrs by disk diffusion method; format: functional; settings: read-out: IZ
Aspergillus niger [8] = experiment: Antifungal activity against Aspergillus niger ATCC 20408 assessed as fungal growth inhibition by plate colony counting method; format: functional
MIA PaCa-2 = experiment: Anticancer activity against human MIA PaCa-2 cells assessed as cell growth inhibition incubated for 72 hrs by MTT assay; format: functional, cell-based; settings: MIA PaCa-2, 72 h
MDA-MB-231 = experiment: Anticancer activity against human MDA-MB-231 cells assessed as cell growth inhibition incubated for 72 hrs by MTT assay; format: functional, cell-based; settings: MDA-MB-231, 72 h
Prototheca zopfii = experiment: Antimicrobial activity against Prototheca zopfii assessed as microbial growth inhibition by CLSI protocol based assay; format: functional
Klebsiella aerogenes = experiment: Antibacterial activity against Enterobacter aerogenes ATCC 13048 assessed as bacterial growth inhibition at 10 mg/ml by hollow agar method; format: functional; settings: read-out: IZ
Escherichia coli [9] = experiment: Antibacterial activity against Escherichia coli assessed as bacterial growth inhibition; format: functional
Aspergillus niger [10] = experiment: Antifungal activity against Aspergillus niger ATCC 16404 assessed as fungal growth inhibition by broth microdilution method; format: functional
Candida albicans [11] = experiment: Antifungal activity against Candida albicans ATCC 14053 assessed as fungal growth inhibition by broth microdilution method; format: functional
Fusarium oxysporum = experiment: Antifungal activity against Fusarium oxysporum VKM F-140 assessed as fungal growth inhibition by broth microdilution method; format: functional
Vanrija humicola = experiment: Antifungal activity against Cryptococcus humicola ATCC 9949 assessed as fungal growth inhibition by broth microdilution method; format: functional
Verticillium dahliae = experiment: Antifungal activity against Verticillium dahliae assessed as fungal growth inhibition at 50 ug incubated for 96 hrs by disk diffusion method; format: functional; settings: read-out: IZ
Aspergillus niger [12] = experiment: Antifungal activity against Aspergillus niger assessed as fungal growth inhibition at 25 ug incubated for 48 hrs by disk diffusion method; format: functional; settings: read-out: IZ
Aspergillus niger [13] = experiment: Antifungal activity against Aspergillus niger assessed as fungal growth inhibition at 50 ug incubated for 96 hrs by disk diffusion method; format: functional; settings: read-out: IZ
Candida albicans [14] = experiment: Antifungal activity against Candida albicans assessed as fungal growth inhibition at 25 ug incubated for 48 hrs by disk diffusion method; format: functional; settings: read-out: IZ
Pseudomonas aeruginosa = experiment: Antibacterial activity against Pseudomonas aeruginosa assessed as bacterial growth inhibition by broth microdilution method; format: functional
Streptococcus mutans [15] = experiment: Antibiofilm activity against Streptococcus mutans ATCC 27351 assessed as bacterial viability at 0.9 uM by SYTO/PI staining based inverted microscopy relative to control; format: functional
Streptococcus mutans [16] = experiment: Antibiofilm activity against Streptococcus mutans ATCC 27351 assessed as bacterial viability at 0.2 uM by SYTO/PI staining based inverted microscopy relative to control; format: functional
[17] = AUC (0 to 24 hrs) in rat at 25 mg/kg, po; format: ADME, organism-based; design: time < 24 hr, dose 25 mg/kg, route po; settings: in vivo
[18] = Cmax in rat at 25 mg/kg, po; format: ADME, organism-based; design: dose 25 mg/kg, route po; settings: in vivo
[19] = test system: Mycobacterium tuberculosis; experiment: Antibacterial activity against Mycobacterium tuberculosis H37Rv infected in C57BL/6J mouse model of acute TB infection administered once daily for 8 days and measured after 24 hrs; format: functional; settings: 216 h, time 9 day
[20] = AUC (0 to 24 hrs) in C57BL/6 mouse at 30 mg/kg, po qd via gavage measured for 0.25 to 24 hrs post dose by LC-MS/MS analysis; format: ADME, organism-based; design: dose 30 mg/kg, time 0.25-24 hrs, route po; settings: in vivo
[21] = Dose normalized AUC (0 to 24 hrs) in C57BL/6 mouse at 30 mg/kg, po qd via gavage measured for 0.25 to 24 hrs post dose by LC-MS/MS analysis; format: ADME, organism-based; settings: in vivo, time 0.25-24 hrs
[22] = Half life in C57BL/6 mouse at 30 mg/kg, po qd via gavage measured for 0.25 to 24 hrs post dose by LC-MS/MS analysis; format: ADME, organism-based; settings: in vivo, time 0.25-24 hrs
[23] = Dose normalized AUC (0 to infinity) in C57BL/6 mouse at 5.5 mg/kg, iv qd measured for 0.083 to 24 hrs post dose by LC-MS/MS analysis; format: ADME, organism-based; settings: in vivo, time 0.083-24 hrs
Aspergillus niger [24] = experiment: Antifungal activity against Aspergillus niger assessed as fungal growth inhibition incubated for 48 hrs by agar diffusion method; format: functional; settings: Aspergillus niger

CC(C)[C@@H]1[NH2+][B-](c2ccc(F)cc2F)(c2ccc(F)cc2F)OC1=O
IC50 (LN-229): 49 µM

O=C(NCCOCCOCCNC(=O)c1ccc2c(c1)B(O)OC2)c1ccc2c(c1)COB2O
MIC99 (A549): > 10 µM | MIC [1]: 0.78 µM

NC(=O)N1N=Cc2ccccc2B1O
MIC (Escherichia coli [2]): 16 mg/L (≈ 84.7 µM) | MIC [3]: 2 mg/L (≈ 10.6 µM)

OB1c2ccccc2NC(=S)N1c1ccccc1
MIC [4]: 8 mg/L (≈ 31.5 µM)

CCS(=O)(=O)N1N=Cc2ccc(Oc3ccc(C(F)(F)F)cc3/C=N/O)cc2B1O
IC50 [5]: 0.09 µM | fraction unbound [6]: 0.12 | IC50 (HepG2): > 100 µM | fraction unbound [7]: 0.015

CCNC(=S)N1N=Cc2c(F)cccc2B1O
zone of inhibition at 100 µg/disc (Bacillus cereus): 3.4 mm

Clc1cccc(B2NC(c3ccccc3)=NO2)c1
MIC (Aspergillus niger [8]): 0.09 µM (≈ 0.0231 µg/mL)

O=C(NCCCOCCOCCOCCCNC(=O)c1ccc2c(c1)B(O)OC2)c1ccc2c(c1)COB2O
MIC99 (A549): > 5 µM | MIC [1]: 1.56 µM

OB1OCc2ccc(NCc3cc4ccccc4cc3Cl)cc21
IC50 (MIA PaCa-2): 2.7 µM | IC50 (MDA-MB-231): 11.9 µM

O=[N+]([O-])c1ccc([N+]2=C(c3ccccc3)C=C(C(Cl)(Cl)Cl)O[B-]2(F)F)cc1
MIC (Prototheca zopfii): 0.3 mg/L (≈ 0.692 µM)

CCN(CC)c1ccc(B2Oc3ccc(C(C)(C)C)cc3O2)cc1
zone of inhibition at 10000 µg/mL (Klebsiella aerogenes): 30.3 mm

CC1=NN2B(OB3c4ccccc4C(C)=NN3C2=O)c2ccccc21
MIC (Escherichia coli [9]): 32 mg/L (≈ 97.6 µM)

C[C@@H]1[C@H](O)[C@@H](C)/C=C/C=C/C=C/C=C/C=C/C=C/C=C/[C@H](O[C@@H]2O[C@H](C)[C@@H](O)[C@H](NS(=O)(=O)c3ccc4c(c3)OB(O)C4)[C@@H]2O)C[C@@H]2O[C@](O)(C[C@@H](O)C[C@@H](O)[C@H](O)CC[C@@H](O)C[C@@H](O)CC(=O)O[C@H]1C)C[C@H](O)[C@H]2C(=O)O
MIC (Aspergillus niger [10]): 0.25 mg/L (≈ 0.223 µM) | MIC (Candida albicans [11]): 0.25 mg/L (≈ 0.223 µM) | MIC (Fusarium oxysporum): 0.25 mg/L (≈ 0.223 µM) | MIC (Vanrija humicola): 0.25 mg/L (≈ 0.223 µM)

C[C@@H]1[C@H](O)[C@@H](C)/C=C/C=C/C=C/C=C/C=C/C=C/C=C/[C@H](O[C@@H]2O[C@H](C)[C@@H](O)[C@H](NC(=O)CCc3ccc4c(c3)OB(O)C4)[C@@H]2O)C[C@@H]2O[C@](O)(C[C@@H](O)C[C@@H](O)[C@H](O)CC[C@@H](O)C[C@@H](O)CC(=O)O[C@H]1C)C[C@H](O)[C@H]2C(=O)O
MIC (Aspergillus niger [10]): 0.5 mg/L (≈ 0.45 µM) | MIC (Candida albicans [11]): 0.5 mg/L (≈ 0.45 µM) | MIC (Fusarium oxysporum): 0.5 mg/L (≈ 0.45 µM) | MIC (Vanrija humicola): 0.5 mg/L (≈ 0.45 µM)

NC(=S)N1N=Cc2ccccc2B1O
zone of inhibition at 50 µg/disc (Verticillium dahliae): 3.7 mm | zone of inhibition at 25 µg/disc (Aspergillus niger [12]): 7 mm | MIC (Escherichia coli [2]): 16 mg/L (≈ 78 µM) | zone of inhibition at 50 µg/disc (Aspergillus niger [13]): 3.1 mm | zone of inhibition at 25 µg/disc (Candida albicans [14]): 6 mm | MIC [3]: 4 mg/L (≈ 19.5 µM)

Clc1ccc(-c2noc3c2COB(c2ccc(Br)cc2)OC3)cc1
MIC (Pseudomonas aeruginosa): 25 mg/L (≈ 61.8 µM)

O=C(NCCNC(=O)c1ccc2c(c1)B(O)OC2)c1ccc2c(c1)B(O)OC2
MIC99 (A549): > 5 µM | MIC [1]: 0.78 µM

Brc1cccc(B2NC(c3ccccc3)=NO2)c1
MIC (Aspergillus niger [8]): 0.08 µM (≈ 0.0241 µg/mL)

O=[N+]([O-])c1cccc(B2NC(c3ccccc3)=NO2)c1
MIC (Aspergillus niger [8]): 0.09 µM (≈ 0.024 µg/mL)

COc1ccc(CN(C(=O)Nc2ccccc2)c2ccc3c(c2)B(O)OC3)cc1
IC50 (MIA PaCa-2): 8.3 µM | IC50 (MDA-MB-231): 11.5 µM

O=C(c1ccncc1)N1N=Cc2ccccc2B1OB1c2ccccc2C=NN1C(=O)c1ccncc1
MIC (Escherichia coli [9]): 4 mg/L (≈ 8.26 µM) | MIC [1]: 32 mg/L

CC1(C)COB(c2ccccc2)N1
Activity (Streptococcus mutans [15]): 60%

CCCCB1NC(C)(C)CO1
Activity (Streptococcus mutans [16]): 40%

CC1(C)OB(O)c2cc(NC(=O)c3ccc(F)cc3C(F)(F)F)ccc21 [ACOZIBOROLE]
AUC(0-t) at 24 h [17]: > 100 µg·h/mL | Cmax [18]: > 10 µg/mL

NC[C@H]1OB(O)c2c(OCCO)ccc(Cl)c21 [GANFEBOROLE]
ED99 [19]: 0.4 mg/kg | AUC [20]: 88.2 µg·h/mL | AUC/dose [21]: 2.94 µg·h/mL | half-life [22]: 3.6 h | AUC/dose [23]: 2.03 µg·h/mL

OB1OCc2cc(F)ccc21 [TAVABOROLE]
MIC (Aspergillus niger [24]): 2 mg/L (≈ 13.2 µM)
